The results in this text go back to patent publication US6569638B1, “Method for screening compounds for the treatment of neoplasia” (Cell Pathways, Inc, priority 2000, dated 2003).

The nature of series [1]: Seven-day dose-range finding study in rats. The settings on record: seven days.
A short description of series [2]: Single, escalating dose human safety study. The class given is in vivo. The settings on record: oral.
In the next series the target is T1, COX I (Ovis aries, UniProt P05979).
T1 construct: COX-I purified from ram seminal vesicles; tissue Cayman Chemical; host or cells: ram seminal vesicles
T1 sequence (P05979 25-600): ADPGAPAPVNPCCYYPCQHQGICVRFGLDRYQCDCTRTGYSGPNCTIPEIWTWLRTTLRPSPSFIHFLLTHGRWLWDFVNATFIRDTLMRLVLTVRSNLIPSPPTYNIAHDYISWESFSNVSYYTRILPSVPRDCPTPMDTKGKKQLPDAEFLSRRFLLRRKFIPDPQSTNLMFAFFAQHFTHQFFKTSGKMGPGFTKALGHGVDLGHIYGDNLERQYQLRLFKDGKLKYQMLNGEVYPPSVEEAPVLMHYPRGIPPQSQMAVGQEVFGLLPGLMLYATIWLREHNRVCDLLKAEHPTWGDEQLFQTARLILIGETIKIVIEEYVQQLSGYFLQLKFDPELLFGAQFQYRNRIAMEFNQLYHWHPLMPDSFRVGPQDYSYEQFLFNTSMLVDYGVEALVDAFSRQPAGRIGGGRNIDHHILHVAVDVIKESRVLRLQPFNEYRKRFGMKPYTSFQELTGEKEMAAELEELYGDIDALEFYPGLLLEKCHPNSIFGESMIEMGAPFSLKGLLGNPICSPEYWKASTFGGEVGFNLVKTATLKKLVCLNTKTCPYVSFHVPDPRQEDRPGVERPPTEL
In words: COX I inhibition. It counts as biochemical, ram. The settings on record: at 100 μM.

In another series the test system is LNCaP cells. The series is described as follows: Histone-associated fragmented DNA (apoptosis) in prostate tumor cells. It counts as cell-based, human. The following applies: 50 μM Compound B (free base), up to 4 days. The procedure: The androgen-sensitive prostate tumor cell line, LNCaP (from ATCC (Rockville, Md.)) was propagated under standard conditions using […] medium containing 5% fetal calve serum and 2 mM glutamine. Primary prostate epithelial cell cultures (PrEC) derived from normal prostate (from Clonetics Inc. (San Diego, Calif.)) were grown under the same conditions as the tumor cell line except a serum-free medium optimized for the growth of such cultures was used (Clonetics Inc). For the experiments, LNCaP or PrEC cells were seeded in 96 well plates at a density of 10,000 cells per well. After 24 hours, the cells were treated with either vehicle (0.1% DMSO) or 50 μM Compound B (free base) solubilized in DMSO. After various drug treatment times ([…]) the cells were lysed and processed for measurement of histone-associated DNA as an indicator of apoptotic cell death (see, Piazza et al., Cancer Research 57: 2452-2459, 1997).

The next series concerns MDA-MB-231. The series is described as follows: Neutral red growth inhibition. It counts as cell-based, human. The following applies: MDA-MB-231, Breast, free base. The procedure:
(§1) Compound B's activity is not confined to activity against colon cancer cell lines or animal models of colon cancer. It has a broad range of anti-neoplastic effects in various neoplastic cell lines. Various types of human cancer cell lines were propagated under sterile conditions in RPMI 1640 medium with 10% fetal bovine serum, 2 mM L-glutamine and sodium bicarbonate. To determine growth inhibitory effects of Compound B, cells were seeded in 96-well plates at a density of 1000 cells per well. Twenty-four hours after plating, the cells were dosed with various concentrations of the free base of Compound B solubilized in DMSO (final concentration 0.1%). The effect of the drug on tumor cell growth was determined using the neutral red cytotoxicity assay following five days of continuous treatment. Neutral red is a dye that is selectively taken up by viable cells by an ATP-dependent transport mechanism.

Another series concerns CCRF-CEM. In words: Neutral red growth inhibition. The settings on record: Leukemia, HCl salt. It counts as cell-based, human. The procedure: as §1
A further series concerns MDA-MB-435. In words: Neutral red growth inhibition. The class given is cell-based, human. The settings on record: MDA-MB-435, Breast, free base. The procedure:
as §1

Another series has as its system NCI-H82. In words: Neutral red growth inhibition. The following applies: NCI-H82, Lung, free base. It counts as cell-based, human. The procedure:
as §1

A further series relates to NCI-H460. The series is described as follows: Neutral red growth inhibition. The class given is cell-based, human. The settings on record: NCI-H460, Lung, free base. The procedure:
as §1

For a further series, the system named is UISO-BCA-1. In words: Neutral red growth inhibition. It counts as cell-based, human. The settings on record: UISO-BCA-1, Breast, free base. The procedure: as §1
The subject of another series is PC-3. The series is described as follows: Neutral red growth inhibition. The settings on record: PC-3, Prostate, free base. The class given is cell-based, human. The procedure: as §1
The next series has as its system NCI-H23. In words: Neutral red growth inhibition. The class given is cell-based, human. The settings on record: NCI-H23, Lung, free base. The procedure: as §1
The test system of the next series is OVCAR. The series is described as follows: Neutral red growth inhibition. The settings on record: Ovary, HCl salt. It counts as cell-based, human. The procedure: as §1
Another series deals with SW-620. In words: Neutral red growth inhibition. It counts as cell-based, human. The settings on record: SW-620, Colon, free base. The procedure:
as §1

Another series has as its system NCI-H322M. In words: Neutral red growth inhibition. It counts as cell-based, human. The following applies: Lung, free base. The procedure:
as §1

In another series the test system is HCT-15. The series is described as follows: Neutral red growth inhibition. It counts as cell-based, human. The following applies: HCT-15, Colon, free base. The procedure:
as §1

Another series deals with HT-29. The series is described as follows: Neutral red growth inhibition. The class given is cell-based, human. The settings on record: HT-29, Colon, free base. The procedure:
as §1

The test system of the next series is DU145. The series is described as follows: Neutral red growth inhibition. The class given is cell-based, human. The following applies: DU145, Prostate, free base. The procedure: as §1
Another series has as its system Colo 205. In words: Neutral red growth inhibition. It counts as cell-based, human. The settings on record: Colo 205, Colon, free base. The procedure: as §1
The test system of series [3] is polyp and normal colonic tissues. The series is described as follows: Apoptosis rates in paired biopsies of APC patients. The class given is in vivo, human.
In series [4] the test system is PKG in HCT116 colon cancer cells. The series is described as follows: PKG assay of drug-treated cell lysates. The settings on record: HCT116 cells (β-catenin mutation, no APC mutation). It counts as cell-based, human. The text has this:
To test the effect of cGMP-specific PDE inhibition on neoplasia containing the β-catenin mutation, HCT116 colon cancer cells were employed. HCT116 is known to contain the β-catenin mutation, but is known not to contain the APC mutation.
The same procedure is used to grow the HCT116 cells as is used in the SW480 procedure described above. In this experiment, only exisulind and controls were used.

Usually GI50 stands for the concentration at which growth is held to half of that of the control. In the case of `CC1=C(CC(=O)NCc2ccccc2)c2cc(F)ccc2/C1=C\c1ccncc1.Cl` [Compound B, (Z)-5-fluoro-2-methyl-(4-pyridylidene)-3-(N-benzyl)indenylacetamide hydrochloride], in [1] (50 mg/kg/day), the signs of toxicity result was “no observable signs of toxicity”. Further, the treatment-related effects entry was “an increase in absolute and relative liver weights in female rats” in [1] (500 mg/kg/day); “labored breathing and/or abnormal respiratory sounds, decreased weights gains and food consumption in male rats, and increased liver weights in female rats” in [1] (2000 mg/kg/day). The side effects result in series [2] is on record as “no significant side effects at any dose”. Moreover, the “COX I inhibition” value at COX I is “less than 25%”. Moreover, the “histone-associated fragmented DNA” value in the series with LNCaP cells was “significant increase in fragmented DNA was detected after 24 hours of treatment”. The GI50 in the series on MDA-MB-231 is 1800 nM; in the series with CCRF-CEM it was 1400 nM; with MDA-MB-435, 1600 nM; with NCI-H82, 1700 nM; in the series with NCI-H460, 1900 nM; in the series with UISO-BCA-1 it was 1500 nM. Besides, the GI50 in the series with PC-3 was 1700 nM; in the series on NCI-H23, 1700 nM; with OVCAR it was 1200 nM; in the series with SW-620, 1700 nM; in the series with NCI-H322M, 2100 nM; with HCT-15 it was 1700 nM. Moreover, the GI50 came out at 2100 nM in the series on HT-29, 1600 nM in the series with DU145 and 1600 nM in the series on Colo 205. The GI90 is 77600 nM in the series with MDA-MB-231; 2300 nM in the series with MDA-MB-435; 5800 nM in the series on NCI-H82; 30000 nM with NCI-H460; 4700 nM in the series with UISO-BCA-1; 82500 nM in the series on PC-3. Also, the GI90 with NCI-H23 was determined as 2500 nM; in the series on SW-620, 2500 nM; with NCI-H322M, 13200 nM; in the series with HCT-15, 3000 nM; with HT-29, 8000 nM; with DU145, 2800 nM. Moreover, in the series with Colo 205, the GI90 is 2400 nM.

With `CC1=C(CC(=O)O)c2cc(F)ccc2/C1=C\c1ccc(S(C)(=O)=O)cc1` [exisulind, 5-fluoro-2-methyl-1-(p-methylsulfonylbenzylidene)-3-indenylacetic acid], in series [3], the “apoptosis rates in polyp versus normal colonic tissues” value is reported as “increased apoptosis rates in polyp, but not normal colonic tissues”. Further, in [4], the “PKG activity relative to control” value was “phosphorylated to a greater extent than the corresponding controls”.
